Experimental data from patent US10011586B2, “Heterocyclic compound, method for preparing the same, and pharmaceutical composition comprising the same” (Daewoong Pharmaceutical Co., Ltd., priority 2015, dated 2018).
pIC50: −log10 of the molar value. Read-outs that look alike come from different tables or passages of the source.

Legend:
PRS enzyme = target: T1, PRS enzyme (Homo sapiens, UniProt P07814); experiment: PRS enzyme activity inhibition experiment; assay type: biochemical
T1 construct: the portion corresponding to PRS in cDNA of EPRS was subcloned; made in house
T1 sequence (P07814 1007-1512 limits assumed): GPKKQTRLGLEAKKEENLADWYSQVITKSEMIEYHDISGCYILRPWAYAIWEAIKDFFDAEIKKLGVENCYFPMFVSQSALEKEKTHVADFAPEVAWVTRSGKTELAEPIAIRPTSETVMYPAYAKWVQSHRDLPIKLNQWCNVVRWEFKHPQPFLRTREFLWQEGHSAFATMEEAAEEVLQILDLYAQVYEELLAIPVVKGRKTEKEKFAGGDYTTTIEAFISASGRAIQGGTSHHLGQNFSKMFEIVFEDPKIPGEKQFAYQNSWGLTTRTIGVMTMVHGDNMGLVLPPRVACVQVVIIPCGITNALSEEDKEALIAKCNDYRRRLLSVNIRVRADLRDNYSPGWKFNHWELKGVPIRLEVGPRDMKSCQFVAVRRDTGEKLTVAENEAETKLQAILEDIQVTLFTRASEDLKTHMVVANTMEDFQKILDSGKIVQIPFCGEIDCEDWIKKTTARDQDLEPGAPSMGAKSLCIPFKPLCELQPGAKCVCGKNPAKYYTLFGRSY
Protocol: Specifically, the portion corresponding to PRS in cDNA of EPRS was subcloned, and the obtained high-purity PRS protein was purified and used in the experiment. The compounds (1 μM) prepared in Examples were added into the reaction buffer (20 mM KPO4 (pH 7.4), 6 mM MgAc, 5 mM ATP, […] tRNA, 0.5 mM DTT, […][^3H]proline (1 mCi/mL)) and allowed to react at 37° C. for 5 to 10 minutes. The reaction was terminated with 3M paper that was in advance dried by addition of 5% TCA. The radioactivity was measured using a liquid scintillation counter.
% Inhibition and IC50 values of the respective compounds were calculated and analyzed using Microsoft Excel or Sigma Plot 8.0. In Table 1, the results are divided into A, B and C according to the range of IC50.

NCI-H460 cells = experiment: Cancer cell growth inhibition experiment (MTT assay); assay type: cell-based; conditions: Homo sapiens, lung cancer cell line, compounds 48 hours, cell viability by MTT assay
Protocol: NCl-H460 cells, lung cancer cell lines, were cultured in 5% CO2, 37° C. incubator using a flask for 75 cm^2 tissue culture. 96-well plates were used for the evaluation. These were prepared by differently applying at concentrations in the range of 6,000 to 12,000 cells/well according to the growth rate of the cell lines. The medium containing 5% FBS were dispensed in 200 μL/well and used. The medium were cultured for 24 hours. After confirming the cell status and dispensing form of a 96-well plate under a microscope, they were used for subsequent experiments. The compounds were evaluated at concentrations of 100, 30, 10, 3, 1, 0.3, 0.03, 0.01 μM. After removing the existing medium, the compounds with various concentrations were treated in an amount of 200 μL/well. The compounds-treated plates were further cultured for 48 hours, and the cell viabilities were measured by MTT assay to calculate IC50 values.
% Inhibition and IC50 values of the respective compounds were calculated and analyzed using Sigma Plot 8.0. In Table 2, the results are divided into A, B and C according to the range of IC50. The case where the derived IC50 is 3 μM or less is represented by “A”, the case where the IC50 is 3 to 10 μM is represented by “B”, and the case where the IC50 is 10 μM or higher is represented by “C”.

[1] = purified PRS protein subcloned from EPRS cDNA, [3H]proline, 37° C., 5 to 10 minutes, liquid scintillation counter, read-out: PRS IC50

SMILES | pIC50 (PRS enzyme; [1]) | pIC50 (NCI-H460 cells) | pIC50 (PRS enzyme)
O=C(C[C@H]1NCCC[C@@H]1O)Cn1cnc2c(-c3ccccc3)cccc21 [Example 1, 1-((2R,3S)-3-hydroxypiperidin-2-yl)-3-(4-phenyl-1H-benzo[d]imidazol-1-yl)propan-2-one] | 6.30 to 7.00 | ≤ 5.00 | 
O=C(C[C@H]1NCCC[C@@H]1O)Cn1cnc2c(-c3cccc(F)c3)nccc21 [Example 2, 1-(4-(3-fluorophenyl)-1H-imidazo[4,5-c]pyridin-1-yl)-3-((2R,3S)-3-hydroxypiperidin-2-yl)propan-2-one] | < 6.30 |  | 
O=C(C[C@H]1NCCC[C@@H]1O)Cn1cnc2c(-c3cccc(Cl)c3)nccc21 [Example 3, 1-(4-(3-chlorophenyl)-1H-imidazo[4,5-c]pyridin-1-yl)-3-((2R,3S)-3-hydroxypiperidin-2-yl)propan-2-one] | < 6.30 |  | 
O=C(C[C@H]1NCCC[C@@H]1O)Cn1cnc2c(-c3cccc(C(F)(F)F)c3)nccc21 [Example 4, 1-((2R,3S)-3-hydroxypiperidin-2-yl)-3-(4-(3-(trifluoromethyl)phenyl)-1H-imidazo[4,5-c]pyridin-1-yl)propan-2-one] | < 6.30 |  | 
O=C(C[C@H]1NCCC[C@@H]1O)Cn1cnc2c(-c3cc(F)cc(Cl)c3)nccc21 [Example 5, 1-(4-(3-chloro-5-fluorophenyl)-1H-imidazo[4,5-c]pyridin-1-yl)-3-((2R,3S)-3-hydroxypiperidin-2-yl)propan-2-one] | < 6.30 |  | 
O=C(C[C@H]1NCCC[C@@H]1O)Cn1cnc2c(-c3cc(Cl)cc(Cl)c3)nccc21 [Example 6, 1-(4-(3,5-dichlorophenyl)-1H-imidazo[4,5-c]pyridin-1-yl)-3-((2R,3S)-3-hydroxypiperidin-2-yl)propan-2-one] | < 6.30 |  | 
O=C(C[C@H]1NCCC[C@@H]1O)Cn1cnc2c(N3CCCC3)nccc21 [Example 7, 1-((2R,3S)-3-hydroxypiperidin-2-yl)-3-(4-(pyrrolidin-1-yl)-1H-imidazo[4,5-c]pyridin-1-yl)propan-2-one] |  | ≤ 5.00 | 
O=C(C[C@H]1NCCC[C@@H]1O)Cn1cnc2cc(-c3ccccc3)ccc21 [Example 8, 1-((2R,3S)-3-hydroxypiperidin-2-yl)-3-(5-phenyl-1H-benzo[d]imidazol-1-yl)propan-2-one] | < 6.30 | ≤ 5.00 | 
O=C(C[C@H]1NCCC[C@@H]1O)Cn1cnc2nc(-c3ccccc3F)ccc21 [Example 9, 1-(5-(2-fluorophenyl)-1H-imidazo[4,5-b]pyridin-1-yl)-3-((2R,3S)-3-hydroxypiperidin-2-yl)propan-2-one] | < 6.30 |  | 
O=C(C[C@H]1NCCC[C@@H]1O)Cn1cnc2nc(-c3cccc(F)c3)ccc21 [Example 10, 1-(5-(3-fluorophenyl)-1H-imidazo[4,5-b]pyridin-1-yl)-3-((2R,3S)-3-hydroxypiperidin-2-yl)propan-2-one] | < 6.30 |  | 
O=C(C[C@H]1NCCC[C@@H]1O)Cn1cnc2nc(-c3ccc(F)cc3)ccc21 [Example 11, 1-(5-(4-fluorophenyl)-1H-imidazo[4,5-b]pyridin-1-yl)-3-((2R,3S)-3-hydroxypiperidin-2-yl)propan-2-one] | < 6.30 |  | 
O=C(C[C@H]1NCCC[C@@H]1O)Cn1cnc2nc(-c3cccc(Cl)c3)ccc21 [Example 12, 1-(5-(3-chlorophenyl)-1H-imidazo[4,5-b]pyridin-1-yl)-3-((2R,3S)-3-hydroxypiperidin-2-yl)propan-2-one] | < 6.30 |  | 
O=C(C[C@H]1NCCC[C@@H]1O)Cn1cnc2nc(-c3cccc(C(F)(F)F)c3)ccc21 [Example 13, 1-((2R,3S)-3-hydroxypiperidin-2-yl)-3-(5-(3-(trifluoromethyl)phenyl)-1H-imidazo[4,5-b]pyridin-1-yl)propan-2-one] | < 6.30 |  | 
O=C(C[C@H]1NCCC[C@@H]1O)Cn1cnc2cc(-c3cccc(Cl)c3)cnc21 [Example 14, 1-(6-(3-chlorophenyl)-3H-imidazo[4,5-b]pyridin-3-yl)-3-((2R,3S)-3-hydroxypiperidin-2-yl)propan-2-one] | 6.30 to 7.00 | ≤ 5.00 | 
O=C(C[C@H]1NCCC[C@@H]1O)Cn1cnc2cc(-c3cccc(C(F)(F)F)c3)cnc21 [Example 15, 1-((2R,3S)-3-hydroxypiperidin-2-yl)-3-(6-(3-(trifluoromethyl)phenyl)-3H-imidazo[4,5-b]pyridin-3-yl)propan-2-one] | < 6.30 |  | 
Cc1c(-c2cccc(F)c2)ccc2c1ncn2CC(=O)C[C@H]1NCCC[C@@H]1O [Example 16, 1-(5-(3-fluorophenyl)-4-methyl-1H-benzo[d]imidazol-1-yl)-3-((2R,3S)-3-hydroxypiperidin-2-yl)propan-2-one] | 6.30 to 7.00 | ≤ 5.00 | 
Cc1c(-c2cccc(Cl)c2)ccc2c1ncn2CC(=O)C[C@H]1NCCC[C@@H]1O [Example 17, 1-(5-(3-chlorophenyl)-4-methyl-1H-benzo[d]imidazol-1-yl)-3-((2R,3S)-3-hydroxypiperidin-2-yl)propan-2-one] | 6.30 to 7.00 | ≤ 5.00 | 
Cc1c(-c2ccccc2Cl)ccc2c1ncn2CC(=O)C[C@H]1NCCC[C@@H]1O [Example 18, 1-(5-(2-chlorophenyl)-4-methyl-1H-benzo[d]imidazol-1-yl)-3-((2R,3S)-3-hydroxypiperidin-2-yl)propan-2-one] | < 6.30 | ≤ 5.00 | 
Cc1c(-c2ccc(Cl)cc2)ccc2c1ncn2CC(=O)C[C@H]1NCCC[C@@H]1O [Example 19, 1-(5-(4-chlorophenyl)-4-methyl-1H-benzo[d]imidazol-1-yl)-3-((2R,3S)-3-hydroxypiperidin-2-yl)propan-2-one] | 6.30 to 7.00 | ≤ 5.00 | 
Cc1c(-c2cccc(C#N)c2)ccc2c1ncn2CC(=O)C[C@H]1NCCC[C@@H]1O [Example 20, 3-(1-(3-((2R,3S)-3-hydroxypiperidin-2-yl)-2-oxopropyl)-4-methyl-1H-benzo[d]imidazol-5-yl)benzonitrile] | < 6.30 | ≤ 5.00 | 
Cc1c(-c2cccc(C(F)(F)F)c2)ccc2c1ncn2CC(=O)C[C@H]1NCCC[C@@H]1O [Example 21, 1-((2R,3S)-3-hydroxypiperidin-2-yl)-3-(4-methyl-5-(3-(trifluoromethyl)phenyl)-1H-benzo[d]imidazol-1-yl)propan-2-one] | 6.30 to 7.00 | ≤ 5.00 | 
O=C(C[C@H]1NCCC[C@@H]1O)Cn1cnc2ncc(-c3cccc(C(F)(F)F)c3)cc21 [Example 42, 1-((2R,3S)-3-hydroxypiperidin-2-yl)-3-(6-(3-(trifluoromethyl)phenyl)-1H-imidazo[4,5-b]pyridin-1-yl)propan-2-one] | 6.30 to 7.00 |  | 
O=C(C[C@H]1NCCC[C@@H]1O)Cn1cnc2cccc(-c3ccccc3C(F)(F)F)c21 [Example 52, 1-((2R,3S)-3-hydroxypiperidin-2-yl)-3-(7-(2-(trifluoromethyl)phenyl)-1H-benzo[d]imidazol-1-yl)propan-2-one] | < 6.30 |  | 
O=C(C[C@H]1NCCC[C@@H]1O)Cn1cnc2cccc(-c3cccc(C(F)(F)F)c3)c21 [Example 53, 1-((2R,3S)-3-hydroxypiperidin-2-yl)-3-(7-(3-(trifluoromethyl)phenyl)-1H-benzo[d]imidazol-1-yl)propan-2-one] | < 6.30 |  | 
O=C(C[C@H]1NCCC[C@@H]1O)Cn1c(CO)nc2cc(-c3ccccc3)ccc21 [Example 55, 1-(2-(hydroxymethyl)-5-phenyl-1H-benzo[d]imidazol-1-yl)-3-((2R,3S)-3-hydroxypiperidin-2-yl)propan-2-one] |  |  | < 6.30
